In series [1] the test system is CYP1A2. The series can be described thus: CYP1A2 induction. Type of series: in vitro ADME. As to conditions: up to 10 μM.
Series [2] concerns the target T1, NTCP (Homo sapiens, UniProt Q14973).
T1 sequence (Q14973 1-349): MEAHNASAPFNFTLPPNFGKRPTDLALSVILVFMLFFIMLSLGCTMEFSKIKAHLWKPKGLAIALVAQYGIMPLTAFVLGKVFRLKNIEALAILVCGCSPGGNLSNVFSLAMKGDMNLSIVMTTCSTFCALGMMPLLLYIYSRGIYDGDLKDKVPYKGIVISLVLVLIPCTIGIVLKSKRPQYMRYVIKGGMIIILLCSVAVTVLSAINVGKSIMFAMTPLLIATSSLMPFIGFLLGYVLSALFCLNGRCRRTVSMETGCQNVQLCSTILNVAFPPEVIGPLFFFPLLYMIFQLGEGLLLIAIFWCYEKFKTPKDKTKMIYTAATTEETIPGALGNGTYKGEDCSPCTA
The note with it: in vitro; read-out: other OATPs NTCP inhibition IC50; cited from earlier work.

In series [3] the target is T2, 2B6 (Homo sapiens, UniProt P20813).
T2 sequence (P20813 1-491): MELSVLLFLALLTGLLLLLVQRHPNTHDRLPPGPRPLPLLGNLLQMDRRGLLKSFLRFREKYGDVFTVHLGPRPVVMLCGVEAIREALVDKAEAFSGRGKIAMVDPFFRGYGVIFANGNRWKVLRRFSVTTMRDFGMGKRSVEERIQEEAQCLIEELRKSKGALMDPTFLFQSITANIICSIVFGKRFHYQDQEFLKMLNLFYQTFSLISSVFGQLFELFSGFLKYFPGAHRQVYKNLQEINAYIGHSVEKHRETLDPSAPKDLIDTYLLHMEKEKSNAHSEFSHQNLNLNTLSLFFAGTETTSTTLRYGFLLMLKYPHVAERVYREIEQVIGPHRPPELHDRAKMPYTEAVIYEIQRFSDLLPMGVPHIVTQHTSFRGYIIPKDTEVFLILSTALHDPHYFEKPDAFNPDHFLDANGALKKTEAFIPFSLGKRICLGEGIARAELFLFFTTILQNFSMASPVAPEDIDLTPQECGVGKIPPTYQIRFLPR
The experiment in a line: CYP2B6 inhibition. The series is classed as in vitro ADME. As to conditions: up to 10 μM.

What is called IC50 is the midpoint of a concentration-inhibition curve. Regarding `COc1ccc2c(O[C@@H]3C[C@H]4C(=O)N[C@]5(C(=O)NS(=O)(=O)C6CC6)C[C@H]5/C=C\CCCCN(C)C(=O)[C@@H]4C3)cc(-c3nc(C(C)C)cs3)nc2c1C` [SMV, Simeprevir, reference compound], in series [1], the “induction of CYP1A2” value was “no induction”. Also, in series [2], the IC50 is 2200 nM.

For the compound `COC(=O)N[C@H](C(=O)N1[C@H](c2nc3cc(-c4cc5ccc4CCc4ccc(c(-c6ccc7[nH]c([C@@H]8C[C@@H]9CCCC[C@@H]9N8C(=O)[C@@H](NC(=O)OC)C(C)C)nc7c6)c4)CC5)ccc3[nH]2)C[C@@H]2CCCC[C@@H]21)C(C)C` [ODV, Odalasvir], the “inhibition of 2B6” value in series [3] is listed as “no inhibition”.

(Values after patent US20170087174A1, “COMBINATION THERAPY REGIMEN FOR TREATMENT OF HCV” (JANSSEN PHARMACEUTICALS, INC., priority 2015, published 2017).)
